Data from the NIST ThermoML archive (doi:10.1021/je060139a).

What was measured:
[1] = xn = mol fraction of the nth substance listed; conditions: Wilhelmy plate method
[2] = refractive index (Na D-line) (dimensionless); xn = mol fraction of the nth substance listed; conditions: 100.5 kPa, Liquid, Standard Abbe refractometry

CCC(=O)OCc1ccccc1 [benzyl propanoate] + CCO
Conditions	refractive index, 288.15 K	refractive index, 298.18 K	refractive index, 308.15 K	refractive index, 318.15 K	surface tension liquid-gas, 288.15 K [mN/m]	surface tension liquid-gas, 298.18 K [mN/m]	surface tension liquid-gas, 308.15 K [mN/m]	surface tension liquid-gas, 318.15 K [mN/m]
[1], x1 = 0.05	–	–	–	–	24	23.2	22.3	21.34
[1], x1 = 0.1	–	–	–	–	24.8	24	23.1	22.1
[1], x1 = 0.15	–	–	–	–	25.5	24.64	23.7	22.7
[1], x1 = 0.2	–	–	–	–	26.13	25.25	24.3	23.3
[1], x1 = 0.25	–	–	–	–	26.7	25.78	24.82	23.8
[1], x1 = 0.3	–	–	–	–	27.23	26.3	25.32	24.3
[1], x1 = 0.35	–	–	–	–	27.76	26.8	25.8	24.78
[1], x1 = 0.4	–	–	–	–	28.3	27.31	26.3	25.28
[1], x1 = 0.45	–	–	–	–	28.85	27.84	26.82	25.78
[1], x1 = 0.5	–	–	–	–	29.4	28.36	27.33	26.28
[1], x1 = 0.55	–	–	–	–	29.95	28.89	27.85	26.78
[1], x1 = 0.6	–	–	–	–	30.5	29.43	28.37	27.28
[1], x1 = 0.65	–	–	–	–	31.06	29.97	28.88	27.78
[1], x1 = 0.7	–	–	–	–	31.62	30.52	29.4	28.3
[1], x1 = 0.75	–	–	–	–	32.23	31.1	29.96	28.83
[1], x1 = 0.8	–	–	–	–	32.88	31.7	30.55	29.4
[1], x1 = 0.85	–	–	–	–	33.7	32.5	31.3	30.1
[1], x1 = 0.9	–	–	–	–	34.5	33.3	32.1	30.9
[1], x1 = 0.95	–	–	–	–	35.2	34	32.8	31.6
[1], x1 = 1	–	–	–	–	36	34.8	33.6	32.4
[2], x1 = 0.05	1.38108	1.37691	1.37266	1.36853	–	–	–	–
[2], x1 = 0.1	1.39613	1.39185	1.38756	1.38322	–	–	–	–
[2], x1 = 0.15	1.40891	1.40454	1.4002	1.39583	–	–	–	–
[2], x1 = 0.2	1.42001	1.41559	1.41123	1.40687	–	–	–	–
[2], x1 = 0.25	1.42966	1.42524	1.42091	1.41651	–	–	–	–
[2], x1 = 0.3	1.43817	1.43375	1.42944	1.425	–	–	–	–
[2], x1 = 0.35	1.44572	1.44128	1.43696	1.4325	–	–	–	–
[2], x1 = 0.4	1.45248	1.44801	1.4437	1.43922	–	–	–	–
[2], x1 = 0.45	1.45858	1.45408	1.44977	1.44524	–	–	–	–
[2], x1 = 0.5	1.46414	1.45962	1.4553	1.45072	–	–	–	–
[2], x1 = 0.55	1.46918	1.46464	1.46031	1.45569	–	–	–	–
[2], x1 = 0.6	1.47384	1.46929	1.46494	1.46029	–	–	–	–
[2], x1 = 0.65	1.47807	1.47352	1.46917	1.46451	–	–	–	–
[2], x1 = 0.7	1.48193	1.47737	1.47302	1.46833	–	–	–	–
[2], x1 = 0.75	1.48549	1.48092	1.47658	1.47188	–	–	–	–
[2], x1 = 0.8	1.48877	1.48419	1.47986	1.47516	–	–	–	–
[2], x1 = 0.85	1.49183	1.48725	1.48292	1.47824	–	–	–	–
[2], x1 = 0.9	1.49464	1.49006	1.48574	1.48106	–	–	–	–
[2], x1 = 0.95	1.49721	1.49265	1.48834	1.48366	–	–	–	–
[2], x1 = 1	1.4995	1.49498	1.49074	1.48611	–	–	–	–

COC(=O)c1ccccc1 [methyl benzoate] + CCO
Conditions	refractive index, 288.15 K	refractive index, 298.18 K	refractive index, 308.15 K	refractive index, 318.15 K	surface tension liquid-gas, 288.15 K [mN/m]	surface tension liquid-gas, 298.18 K [mN/m]	surface tension liquid-gas, 308.15 K [mN/m]	surface tension liquid-gas, 318.15 K [mN/m]
[1], x1 = 0.05	–	–	–	–	23.8	23	22.1	21.2
[1], x1 = 0.1	–	–	–	–	24.63	23.78	22.87	21.9
[1], x1 = 0.15	–	–	–	–	25.4	24.51	23.57	22.6
[1], x1 = 0.2	–	–	–	–	26.18	25.25	24.28	23.3
[1], x1 = 0.25	–	–	–	–	26.92	25.96	24.94	23.95
[1], x1 = 0.3	–	–	–	–	27.67	26.66	25.59	24.6
[1], x1 = 0.35	–	–	–	–	28.37	27.3	26.2	25.2
[1], x1 = 0.4	–	–	–	–	29.04	27.9	26.8	25.8
[1], x1 = 0.45	–	–	–	–	29.69	28.55	27.4	26.4
[1], x1 = 0.5	–	–	–	–	30.33	29.16	28	27
[1], x1 = 0.55	–	–	–	–	30.97	29.79	28.6	27.6
[1], x1 = 0.6	–	–	–	–	31.62	30.41	29.2	28.2
[1], x1 = 0.65	–	–	–	–	32.29	31.05	29.8	28.8
[1], x1 = 0.7	–	–	–	–	33.01	31.75	30.5	29.46
[1], x1 = 0.75	–	–	–	–	33.78	32.5	31.2	30.16
[1], x1 = 0.8	–	–	–	–	34.6	33.3	32	30.92
[1], x1 = 0.85	–	–	–	–	35.6	34.2	32.8	31.76
[1], x1 = 0.9	–	–	–	–	36.6	35.2	33.8	32.7
[1], x1 = 0.95	–	–	–	–	37.6	36.2	34.8	33.8
[1], x1 = 1	–	–	–	–	38.6	37.2	35.8	34.8
[2], x1 = 0.05	1.38013	1.37591	1.37154	1.36738	–	–	–	–
[2], x1 = 0.1	1.39497	1.39068	1.38617	1.38191	–	–	–	–
[2], x1 = 0.15	1.40825	1.40383	1.39926	1.39488	–	–	–	–
[2], x1 = 0.2	1.41993	1.41549	1.41088	1.40643	–	–	–	–
[2], x1 = 0.25	1.43052	1.42606	1.42138	1.41686	–	–	–	–
[2], x1 = 0.3	1.44018	1.4357	1.43104	1.42643	–	–	–	–
[2], x1 = 0.35	1.44896	1.44448	1.4398	1.43518	–	–	–	–
[2], x1 = 0.4	1.45703	1.45255	1.44784	1.44318	–	–	–	–
[2], x1 = 0.45	1.4645	1.46	1.45528	1.45059	–	–	–	–
[2], x1 = 0.5	1.47142	1.46691	1.4622	1.45746	–	–	–	–
[2], x1 = 0.55	1.47785	1.47332	1.46859	1.46384	–	–	–	–
[2], x1 = 0.6	1.48384	1.4793	1.47455	1.46979	–	–	–	–
[2], x1 = 0.65	1.48938	1.48487	1.4801	1.47528	–	–	–	–
[2], x1 = 0.7	1.49451	1.49	1.4852	1.48039	–	–	–	–
[2], x1 = 0.75	1.49936	1.49482	1.49002	1.48515	–	–	–	–
[2], x1 = 0.8	1.50381	1.49926	1.49445	1.48961	–	–	–	–
[2], x1 = 0.85	1.50803	1.50347	1.49866	1.49378	–	–	–	–
[2], x1 = 0.9	1.512	1.50743	1.5026	1.49773	–	–	–	–
[2], x1 = 0.95	1.51569	1.51112	1.50631	1.50144	–	–	–	–
[2], x1 = 1	1.51915	1.51467	1.50993	1.50514	–	–	–	–
